Laboratory results as given in ChEMBL document CHEMBL3045939, “Synthesis and evaluation of fused pyrimidine derivatives as anti-inflammatory, antiproliferative and antimicrobial agents” (Med Chem Res, 2012).
≈ marks a conversion by molar mass, not a printed value.

Assays:
Rattus norvegicus [1] = experiment: Anti-inflammatory activity in Rattus norvegicus Wistar albino (rat) assessed as carrageenan-induced paw volume at 100 mg/kg, po administered 1 hr prior to carrageenan-challenge measured at 1 hr (reference value: 1.2075 +/- 0.0405 mm3); type: functional
Rattus norvegicus [2] = experiment: Anti-inflammatory activity in Rattus norvegicus Wistar albino (rat) assessed as carrageenan-induced paw volume at 100 mg/kg, po administered 1 hr prior to carrageenan-challenge measured at 5 hr (reference value: 1.24 +/- 0.0754 mm3); type: functional
HeLa = experiment: Cytotoxicity against Homo sapiens (human) HeLa cells after 24 hr by MTT assay; type: functional, cell-based
Rattus norvegicus [3] = experiment: Anti-inflammatory activity in Rattus norvegicus Wistar albino (rat) assessed as carrageenan-induced paw volume at 100 mg/kg, po administered 1 hr prior to carrageenan-challenge measured at 4 hr (reference value: 1.2825 +/- 0.0862 mm3); type: functional
HEp-2 = experiment: Cytotoxicity against Homo sapiens (human) Hep2 cells after 24 hr by MTT assay; type: functional, cell-based; conditions: HEp-2, 24 h
Rattus norvegicus [4] = experiment: Anti-inflammatory activity in Rattus norvegicus Wistar albino (rat) assessed as carrageenan-induced paw volume at 100 mg/kg, po administered 1 hr prior to carrageenan-challenge measured at 3 hr (reference value: 1.225 +/- 0.0484 mm3); type: functional
Aspergillus flavus = experiment: Antimicrobial activity against Aspergillus flavus ATCC 15517 after 48 hr by broth micro dilution assay; type: functional; conditions: ATCC 15517, 48 h
Escherichia coli = experiment: Antimicrobial activity against Escherichia coli ATCC 25922 after 24 hr by broth micro dilution assay; type: functional; conditions: ATCC 25922, 24 h
[5] = Cytotoxicity against Homo sapiens (human) Chang cells after 24 hr by MTT assay; type: functional, cell-based
Staphylococcus aureus = experiment: Antimicrobial activity against Staphylococcus aureus ATCC 25923 after 24 hr by broth micro dilution assay; type: functional; conditions: ATCC 25923, 24 h
Pseudomonas aeruginosa = experiment: Antimicrobial activity against Pseudomonas aeruginosa ATCC 27853 after 24 hr by broth micro dilution assay; type: functional; conditions: ATCC 27853, 24 h
Candida albicans = experiment: Antimicrobial activity against Candida albicans ATCC 24433 after 48 hr by broth micro dilution assay; type: functional; conditions: ATCC 24433, 48 h
Rattus norvegicus [6] = experiment: Anti-inflammatory activity in Rattus norvegicus Wistar albino (rat) assessed as carrageenan-induced paw volume at 100 mg/kg, po administered 1 hr prior to carrageenan-challenge measured at 2 hr (reference value: 1.4175 +/- 0.1931 mm3); type: functional
Rattus norvegicus [7] = experiment: Anti-inflammatory activity in Rattus norvegicus Wistar albino (rat) assessed as inhibition of carrageenan-induced paw edema at 100 mg/kg, po administered 1 hr prior to carrageenan-challenge measured at 1 hr relative to control; type: functional

Row | SMILES | Activity (Rattus norvegicus [1]) | Activity (Rattus norvegicus [2]) | IC50 (HeLa) | Activity (Rattus norvegicus [3]) | IC50 (HEp-2) | Activity (Rattus norvegicus [4]) | MIC (Aspergillus flavus) | MIC (Escherichia coli) | IC50 [5] | MIC (Staphylococcus aureus) | MIC (Pseudomonas aeruginosa) | MIC (Candida albicans) | Activity (Rattus norvegicus [6]) | inhibition in vivo at 100 mg/kg (Rattus norvegicus [7])
1 | COc1ccc(-n2c(-c3ccccc3)nc3ccc(Cl)cc3c2=O)cc1 | 1.12 mm3 | 1.175 mm3 | < 50 µg/mL | 1.14 mm3 | 12.5 µg/mL (≈ 34.5 µM) | 1.21 mm3 | > 100 µg/mL | 1.56 µg/mL (≈ 4.3 µM) | > 25 µg/mL | 3.12 µg/mL (≈ 8.6 µM) | 3.12 µg/mL (≈ 8.6 µM) | 12.5 µg/mL (≈ 34.5 µM) | – | –
2 | O=c1c2cc(Cl)ccc2nc(-c2ccccc2)n1-c1ccc(F)c(Cl)c1 | 1.1875 mm3 | 1.25 mm3 | < 25 µg/mL | 1.3075 mm3 | < 6.25 µg/mL | 1.17 mm3 | > 100 µg/mL | > 100 µg/mL | < 6.25 µg/mL | > 100 µg/mL | 100 µg/mL (≈ 260 µM) | > 100 µg/mL | 1.3525 mm3 | –
3 | O=c1c2cc(Cl)ccc2nc(-c2ccccc2)n1Cc1ccc(F)cc1 | 1.1525 mm3 | 1.2875 mm3 | 41.5 µg/mL (≈ 114 µM) | 1.24 mm3 | 10.9 µg/mL (≈ 29.8 µM) | 1.135 mm3 | 25 µg/mL (≈ 68.5 µM) | 1.56 µg/mL (≈ 4.28 µM) | 17.9 µg/mL (≈ 49.2 µM) | 0.78 µg/mL (≈ 2.14 µM) | 3.12 µg/mL (≈ 8.55 µM) | 12.5 µg/mL (≈ 34.3 µM) | 1.285 mm3 | –
4 | O=c1c2cc(Cl)ccc2nc(-c2ccccc2)n1Cc1ccc(Cl)cc1 | – | 1.1825 mm3 | > 200 µg/mL | 1.2325 mm3 | > 50 µg/mL | 1.195 mm3 | 25 µg/mL (≈ 65.6 µM) | 1.56 µg/mL (≈ 4.09 µM) | > 50 µg/mL | 0.78 µg/mL (≈ 2.05 µM) | 3.12 µg/mL (≈ 8.18 µM) | 12.5 µg/mL (≈ 32.8 µM) | 1.265 mm3 | 72.9%
